Patent US10259796B2, “Oxaspiro[2.5]octane derivatives and analogs” (Zafgen, Inc., priority 2011, dated 2019)
Where two headings read alike, the source gives them in different places.

What was measured:
recombinant human MetAP2 = target: T1, recombinant human MetAP2 (Homo sapiens, UniProt P50579); assay: MetAP2 enzyme assay (inhibition of recombinant MetAP2, Met-Gly-Met-Met substrate); format: biochemical; settings: 50 nM
T1 construct: made in house; host or cells: High Five insect cells (Bac-to-Bac baculovirus)
T1 sequence (P50579 whole entry): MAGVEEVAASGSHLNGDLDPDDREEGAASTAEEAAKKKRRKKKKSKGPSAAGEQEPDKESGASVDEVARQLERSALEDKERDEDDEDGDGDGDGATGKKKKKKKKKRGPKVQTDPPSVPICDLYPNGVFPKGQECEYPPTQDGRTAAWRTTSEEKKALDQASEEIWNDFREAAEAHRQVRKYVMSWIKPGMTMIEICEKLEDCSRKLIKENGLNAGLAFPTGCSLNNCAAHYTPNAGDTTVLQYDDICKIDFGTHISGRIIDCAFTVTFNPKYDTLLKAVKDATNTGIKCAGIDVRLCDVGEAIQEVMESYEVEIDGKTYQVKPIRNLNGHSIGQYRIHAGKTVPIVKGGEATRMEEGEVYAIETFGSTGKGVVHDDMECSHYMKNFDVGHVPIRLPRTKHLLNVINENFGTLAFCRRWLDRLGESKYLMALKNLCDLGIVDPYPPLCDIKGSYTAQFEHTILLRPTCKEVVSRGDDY
Experimental: Exemplary procedures for expression and purification of MetAP2 are shown in Griffith et al. (PNAS (1998) 95(26):15183-15188). Briefly, recombinant His-tagged human MetAP2 is expressed by using a Bac-to-Bac baculovirus expression system (GIBCO/BRL). Recombinant baculovirus stocks are generated and amplified as per the manufacturer's instructions. Protein is harvested 36 hr after baculovirus infection of two 15-cm plates of High Five cells.
The cell pellet are weighed and lysed (in 5 ml/g of wet pellet) in pre-chilled lysis buffer [buffer B+1% Nonidet P-40/1 mM phenymethylsulfonyl fluoride (PMSF)/2 μg/ml leupeptin/2 μg/ml aprotinin/1 μg/ml pepstatin]. The lysate is incubated on ice for 10 min and centrifuged at 10,000×g for 10 min. […] The Talon resin is pelleted by centrifugation at 1,200×g for 3 min and washed with 4×10 ml of buffer B. During the final wash, the resin is slurried into a Bio-Rad Econo column. The 6×His-tagged MetAP2 is eluted with 6 ml of 50 mM imidazole in buffer B, and 0.5 ml fractions are collected. The amount and purity of recombinant MetAP2 is analyzed by the absorbance at 280 nm and SDS/PAGE (10% gel). The fractions containing the highest amounts of MetAP2 are pooled and dialyzed against 3 liters of buffer B overnight before storage at 4° C.
An enzyme assay is performed in a 96-well format as described in Griffith et al. (PNAS (1998) 95(26):15183-15188). […] To begin the enzymatic reaction, Met-Gly-Met-Met is added to a final concentration of 4 mM and incubated at 37° C. The reaction is quenched after 20 min by adding EDTA to a concentration of 10 mM. Released methionine is quantitated as described in Ben-Bassat et al. (J Bacteriol (1987) 169:751-757).
IC50 values are calculated and compounds herein are determined to be active inhibitors of MetAP2, with some having nanomolar activities.

[1] = Cell Based Assay (inhibition range)
[2] = Mice weight loss, 7 day, 1 mg/kg/day oral gavage, diet-induced obese mice; format: in vivo; settings: Mus musculus, 168 h, read-out: Mice Wt Loss 7 day % WL 1 mpk
Excerpt: Lean body mass is important to normal function in subjects. Substantial loss of lean body mass is not a desirable consequence of a therapy for an overweight or obese subject. A study is undertaken to analyze weight loss with respect to lean body mass.
Mice are divided into two groups, a diet-induced obese group and a lean group (control). For the diet-induced obese group, C57BL/6NTac mice maintained prior to and during the study on a diet containing 60% fat on a kilocalorie basis are further divided into two groups, fifteen mice per group. Average body weight of these diet-induced obese mice is 40 g at the start of the study. For the lean group, fifteen C57BLI6NTac mice are maintained on a diet containing 4.3% by weight fat prior to and during the study. Average body weight of these lean mice is 33 g at the start of the study. Daily food consumption is also recorded.
Compounds of the invention are administered to one of the diet-induced obese mice groups by oral gavage as a solution in 10% DMSO, at dose of 1 mg/kg/day, 7 days. The other diet-induced obese mice group and the lean mice group are not administered anything.

[3] = 1 hr, read-out: MetAP2 Enzyme Assay 1 hr 50 nM
[4] = 2 hr, read-out: MetAP2 Enzyme Assay 2 hr 50 nM
[5] = 4 hr, read-out: MetAP2 Enzyme Assay 4 hr 50 nM
[6] = diet-induced obese C57BL/6NTac mice, oral gavage, 1 mg/kg/day, 7 days

Row | Structure (SMILES) | inhibition at 0.05 µM (recombinant human MetAP2; [3]) [%] | inhibition at 0.05 µM (recombinant human MetAP2; [4]) [%] | inhibition at 0.05 µM (recombinant human MetAP2; [5]) [%] | IC50 ([1]; cells printed in nM) [nM] | change in vivo at 1 mg/kg ([2]; po) [%] | change in vivo at 1 mg/kg [2, 6] [%] | IC50 ([1]; in uM) [nM]
1 | CO[C@@H]1C(=O)CC[C@]2(CO2)[C@H]1C1(C)O[C@@H]1CCC(C)C (stereo in doubt) [Example 52, (3R,5 S)-4-((2R,3R)-3-isopentyl-2-methyloxiran-2-yl)-5-methoxy-1-oxaspiro[2.5]octan-6-one] | 0 | 0 | 17 | – | – | – | –
2 | CO[C@@H]1[C@H](OC(=O)N[C@@H](C(N)=O)C(C)C)CC[C@]2(CO2)[C@H]1[C@@]1(C)O[C@@H]1CC=C(C)C [Example 3] | 62 | 90 | 100 | < 10 | 5 | – | –
3 | COC(=O)CCCCCCCCC(=O)O[C@@H]1CC[C@]2(CO2)[C@@H]([C@@]2(C)O[C@@H]2CC=C(C)C)[C@@H]1OC [Example 4] | 46 | 58 | 94 | 10 to 100 | – | 12.5 | –
4 | CO[C@@H]1[C@H](OC(=O)CCCCCCCCC(=O)O)CC[C@]2(CO2)[C@H]1[C@@]1(C)O[C@@H]1CC=C(C)C [Example 5] | 15 | 30 | 50 | < 10 | 9.5 | – | –
5 | COC(=O)CCCCCCCCCO[C@H]1CC[C@]2(CO2)[C@@H]([C@@]2(C)O[C@@H]2CC=C(C)C)[C@@H]1OC [Example 6] | 0 | 0 | 0 | – | – | 1.7 | > 1000
6 | CO[C@@H]1[C@H](NCCCCCCCCCC(=O)O)CC[C@]2(CO2)[C@H]1[C@@]1(C)O[C@@H]1CC=C(C)C [Example 7] | 0 | 0 | 0 | – | 0.5 | – | > 1000
7 | CO[C@@H]1C(=O)CC[C@]2(CO2)[C@H]1[C@@]1(C)O[C@@H]1CC=C(C)C [Example 8, fumagillin ketone] | 46 | 65 | 93 | < 10 | 11.3 | – | –
8 | CO[C@@H]1[C@H](OC(=O)CCCCCCCCC(=O)O)CC[C@]2(CO2)[C@H]1[C@@]1(C)O[C@@H]1CCC(C)C [Example 9] | 12 | 35 | 50 | – | – | 3.3 | 100 to 1000
9 | CCCCCCCCCCC(=O)O[C@@H]1CC[C@]2(CO2)[C@@H]([C@@]2(C)O[C@@H]2CC=C(C)C)[C@@H]1OC [Example 12] | 0 | 5 | 29 | – | – | 8.4 | 100 to 1000
10 | C=C1CC[C@]2(CO2)[C@@H]([C@@]2(C)O[C@@H]2CC=C(C)C)[C@@H]1OC [Example 15] | 26 | 32 | 40 | – | 7.9 | – | 100 to 1000
11 | CCCCCCCC/C=C\CCCCCCCC(=O)O[C@@H]1CC[C@]2(CO2)[C@@H]([C@@]2(C)O[C@@H]2CC=C(C)C)[C@@H]1OC [Example 16] | 0 | 0 | 0 | – | 5.4 | – | > 1000
12 | CO[C@H]1[C@H]([C@@]2(C)O[C@@H]2CC=C(C)C)[C@]2(CCC1(F)F)CO2 [Example 17] | 29 | 44 | 40 | – | 0.1 | – | > 1000
13 | CCCCCCCCCCS[C@@H]1CC[C@]2(CO2)[C@@H]([C@@]2(C)O[C@@H]2CC=C(C)C)[C@@H]1OC [Example 18] | 0 | 0 | 0 | – | – | 0 | > 1000
14 | COC(=O)CCCCCCCCCO[C@@H]1CC[C@]2(CO2)[C@@H]([C@@]2(C)O[C@@H]2CC=C(C)C)[C@@H]1OC [Example 19] | 0 | 0 | 0 | – | – | -0.9 | > 1000
15 | CCCCCCCCCC=C1CC[C@]2(CO2)[C@@H]([C@@]2(C)O[C@@H]2CC=C(C)C)[C@@H]1OC [Example 20] | 0 | 0 | 0 | – | 0.4 | – | > 1000
16 | CO[C@@H]1C(=CC=C(C)C)CC[C@]2(CO2)[C@H]1[C@@]1(C)O[C@@H]1CC=C(C)C [Example 21] | 0 | 0 | 0 | – | – | – | > 1000
17 | C=C1CC[C@]2(CO2)[C@@H]([C@@]2(C)O[C@@H]2C/C=C/CCCC)[C@@H]1OC [Example 22] | 0 | 0 | 0 | – | – | – | > 1000
18 | CCCC/C=C/C[C@H]1O[C@]1(C)[C@H]1[C@H](OC)[C@H](O)CC[C@]12CO2 [Example 24] | 0 | 0 | 0 | 10 to 100 | – | – | –
19 | CO[C@@H]1C(C)CC[C@]2(CO2)[C@H]1[C@@]1(C)O[C@@H]1CCC(C)C (some centres unmarked) [Example 26] | 0 | 0 | 0 | – | – | – | –
20 | CCCCCCCCCC[S+]([O-])[C@@H]1CC[C@]2(CO2)[C@@H]([C@@]2(C)O[C@@H]2CC=C(C)C)[C@@H]1OC (some centres unmarked) [Example 31] | – | – | 0 | – | – | – | –
21 | CO[C@@H]1[C@H](OC(=O)/C=C/C=C/C=C/C=C/C(=O)O)CC[C@]2(CO2)[C@H]1[C@@]1(C)O[C@@H]1CC=C(C)C [Example 36] | – | – | 64 | < 10 | – | – | –
22 | CCOC(=O)C=C1CC[C@]2(CO2)[C@@H]([C@@]2(C)O[C@@H]2CC=C(C)C)[C@@H]1OC [Example 37] | – | – | 96 | < 10 | – | – | –
23 | CO[C@@H]1C(=O)CC[C@]2(CO2)[C@H]1[C@@]1(C)O[C@@H]1CC=C(C)C [Example 51, (3R,5S)-5-methoxy-4-((2R,3R)-2-methyl-3-(3-methylbut-2-enyl)oxiran-2-yl)-1-oxaspiro[2.5]octan-6-one] | 0 | 44 | 78 | – | – | – | –
24 | CO[C@@H]1C(=O)C(C)C[C@]2(CO2)C1[C@@]1(C)O[C@@H]1CC=C(C)C (stereo partly drawn) [Example 53, (3R,5S)-5-methoxy-7-methyl-4-((2R,3R)-2-methyl-3-(3-methylbut-2-enyl)oxiran-2-yl)-1-oxaspiro[2.5]octan-6-one] | 0 | 0 | 28 | – | – | – | –
25 | CO[C@@H]1C(=O)CC[C@@](C)(O)[C@H]1[C@@]1(C)O[C@@H]1CCC(C)C [Example 54, (2S,4R)-4-hydroxy-3-((2R,3R)-3-isopentyl-2-methyloxiran-2-yl)-2-methoxy-4-methylcyclohexanone] | 0 | 0 | 0 | – | – | – | –
26 | CO[C@@H]1C(=O)CC[C@]2(CO2)[C@H]1C1(C)O[C@@H]1CC(=O)O (some centres unmarked) [Example 55] | – | – | 0 | – | – | – | –
27 | CO[C@@H]1C(=O)C=C[C@]2(CO2)[C@H]1[C@@]1(C)O[C@@H]1CC=C(C)C [Example 57, (3R,S)-7-methoxy-8-((2R,3R)-2-methyl-3-(3-methylbut-2-enyl)oxiran-2-yl)-1-oxaspiro[2.5]oct-4-en-6-one] | – | – | 37 | – | – | – | –
28 | CO[C@@H]1C(=O)CC[C@]2(CO2)[C@H]1C1(C)O[C@@H]1CC(=O)NCc1ccccc1 (some centres unmarked) [Example 58] | – | – | 0 | – | – | – | –
29 | CCOC(=O)CCCCC/C=C/C[C@H]1OC1(C)[C@H]1[C@H](OC)C(=O)CC[C@]12CO2 (some centres unmarked) [Example 59] | – | – | 0 | 10 to 100 | – | – | –
